Assay results as given in ChEMBL document CHEMBL5233281, “Design, synthesis and biological evaluation of novel 1,3,4,9-tetrahydropyrano[3,4-b]indoles as potential treatment of triple negative breast cancer by suppressing PI3K/AKT/mTOR pathway” (Bioorg Med Chem, 2021).
Calls of active or inactive are those of the source. The rule behind the calls is not given here.

Columns and labels:
A549 = assay: Antiproliferative activity against human A549 cells assessed as inhibition of cell growth incubated for 72 hrs by CCK8 assay; format: functional, cell-based; details: A549, 72 h
BGC-823 = assay: Antiproliferative activity against human BGC-823 cells assessed as inhibition of cell growth incubated for 72 hrs by CCK8 assay; format: functional, cell-based; details: BGC-823, 72 h
MDA-MB-231 [1] = assay: Antiproliferative activity against human MDA-MB-231 cells assessed as inhibition of cell growth at 1 to 4 uM by CCK8 assay; format: functional, cell-based; details: dose 1-4 µM, time 24-96 hrs, TDE = time-dependent effect
MDA-MB-231 [2] = assay: Antiproliferative activity against human MDA-MB-231 cells assessed as inhibition of cell growth measured after 24 to 96 hrs by CCK8 assay; format: functional, cell-based; details: dose 1-4 µM, time 24-96 hrs
MDA-MB-231 [3] = assay: Induction of cell cycle arrest in human MDA-MB-231 cells assessed as accumulation of cells at G0/G1 phase at 2 uM incubated for 48 hrs by PI staining based flow cytometry (reference value: 48.33%); format: functional
MDA-MB-231 [4] = assay: Induction of cell cycle arrest in human MDA-MB-231 cells assessed as downregulation of CDK4 protein expression at 1 to 4 uM incubated for 48 hrs by western blot analysis; format: functional, cell-based; details: dose 1-4 µM
MDA-MB-231 [5] = assay: Induction of apoptosis in human MDA-MB-231 cells assessed as increase in apoptotic cells at 2 uM incubated for 72 hrs by AnnexinV-FITC/PI staining based flow cytometry (reference value: 5.24%); format: functional
MDA-MB-231 [6] = assay: Induction of apoptosis in human MDA-MB-231 cells assessed as increase in ratio of Bax to Bcl-2 protein expression measured after 48 hrs by western blot analysis; format: functional, cell-based; details: dose 1-4 µM
MDA-MB-231 [7] = assay: Induction of apoptosis in human MDA-MB-231 cells assessed as increase in cleaved caspase-8 protein expression at 1 to 4 uM incubated for 48 hrs by western blot analysis; format: functional, cell-based; details: dose 1-4 µM
[8] = Inhibition of PI3K/Akt/mTOR signaling in human MDA-MB-231 cells assessed as reduction in Akt phosphorylation at Ser473 residue incubated for 48 hrs by western blot analysis; format: cell-based; details: dose 1-4 µM
[9] = Inhibition of PI3K/Akt/mTOR signaling in human MDA-MB-231 cells assessed as reduction in Akt phosphorylation at Thr308 residue incubated for 48 hrs by western blot analysis; format: cell-based; details: dose 1-4 µM
[10] = Inhibition of PI3K/Akt/mTOR signaling in human MDA-MB-231 cells assessed as upregulation of PTEN expression incubated for 48 hrs by western blot analysis; format: cell-based; details: dose 1-4 µM
[11] = Inhibition of PI3K/Akt/mTOR signaling in human MDA-MB-231 cells assessed as reduction in Akt phosphorylation at Thr308 residue at 2 uM incubated for 72 hrs in presence of IGF-1 by western blot analysis; format: cell-based

- IC50 (A549): 14.8 µM
- IC50 (BGC-823): 9.11 µM
Structure (SMILES): Fc1cc(F)cc(C2OCCc3c2[nH]c2ccccc32)c1 (stereo not drawn)
- Activity (MDA-MB-231 [1]): Tde
- Activity (MDA-MB-231 [2]): Dose-Dependent Effect
- Activity (MDA-MB-231 [3]): 64%
- Activity (MDA-MB-231 [4]): Active
- Activity (MDA-MB-231 [5]): 31.34%
- Activity (MDA-MB-231 [6]): Dose-Dependent Effect
- Activity (MDA-MB-231 [7]): Active
- inhibition [8]: Dose-Dependent Effect
- inhibition [9]: Dose-Dependent Effect
- inhibition [10]: Dose-Dependent Effect
- inhibition [11]: inactive
